Experimental data from patent US20190110472A1, “ACTIVE INGREDIENT COMPOSITIONS COMPRISING N-ALKENOYL-N-ALKYLGLUCAMIDES AND THE USE THEREOF” (Clariant International, Ltd., priority 2017, published 2019).

Legend:
[1] = Dynamic surface tension, bubble pressure method (BP2100 tensiometer, Krüss); format: physicochemical; settings: for Dynamic surface tension [mN/m] 20 ms: surface age 20 ms; for Dynamic surface tension [mN/m] 50 ms: surface age 50 ms; for Dynamic surface tension [mN/m] 100 ms: surface age 100 ms; for Dynamic surface tension [mN/m] 200 ms: surface age 200 ms
Method: Dynamic surface tension was determined via the bubble pressure method (BP2100 tensiometer, Krüss). Given a timespan of relevance for the spray application of agrochemicals in aqueous dilution (called the surface age in the bubble pressure method) of 200 milliseconds (ms), the value for dynamic surface tension in [mN/m] correlates with the adhesion on plants that are difficult to wet, such as barley (cereal). A value of 50 mN/m (at 20-21° C.) with respect to water (72.8 mN/m) results in an improvement in the adhesion from “zero adhesion” (0%) to about 50% (Baur P., Pontzen R.; 2007; Basic features of plant surface wettability and deposit formation and the impact of adjuvant; in R. E. Gaskin ed. Proceedings of the 8th International Symposium on Adjuvants for Agrochemicals; Publisher: International Society for Agrochemical Adjuvants (ISAA), Columbus, Ohio, USA).

[2] = Appearance and stability of spray liquids after 24 h; format: physicochemical
Method: The composition of spray liquids A1-A18 is specified hereinafter. These spray liquids are produced by mixing the various test substances in water, and the appearance and stability of the spray liquid were assessed after 24 h.
The inventive alkenoylglucamides (A1 to A6) are self-emulsifying in the spray liquid and form cloudy homogeneous emulsions that are stable over 24 h. By contrast, spray liquids comprising non-inventive saturated alkylglucamides (A7-A13) of similar chain length are not phase-stable and flocculate.

indicator plants = test: Plant compatibility after application to indicator plants; format: in vivo; settings: concentrations of 0.1, 0.3, 0.8, 1.0, 1.5, 2 and 3 g/L
[3] = Droplet size distribution of spray (Malvern Spraytec, ID(3)12002 injector nozzle, 3 bar); format: physicochemical; settings: summary of Table 4, no tankmix partner
Text: A Malvern Spraytec “real-time spray sizing system” was used to determine the droplet size distribution. For this purpose, the system (STP5311, Malvern Instruments GmbH, Heidelberg, Germany) was installed in a specially constructed spray cabin, with the option of being able to model real spray applications as carried out in practice with freely adjustable pressure for various hydraulic nozzles and freely adjustable distances (nozzle-target surface). The spray cabin can be darkened and all disruptive parameters can be eliminated. For the measurements, the ID(3)12002 (Lechler) injector nozzles were used. The pressure set was varied, and mean pressure was kept constant at 3 bar for the measurements reported hereinafter. The temperature and relative air humidity varied between 21.5° C. and 29° C. and between 33% and 56% respectively. In each test series, tap water was measured as internal standard. […]
As a further measurement parameter, the proportion by volume of the droplets having diameter <210 μm (“Vol 210”) was determined and expressed in relation to the proportion by volume of droplets having diameter <105 μm (“Vol 210 / Vol 105”). In addition, the percentage reduction in the proportion by volume of droplets having diameter <105 μm in the case of use of spray liquids containing the test substances was calculated in comparison to the use of tap water as internal standard (“Red 105”).

apple leaf cuticles = test: Membrane penetration test of metribuzin through isolated apple leaf cuticles; format: in vitro ADME; settings: Sencor 600 SC, metribuzin 2.25 g/L, 10° C./56% rel. air humidity
Method: The potential of the test substances, which is independent of the surfactant action, to promote foliar absorption of active agrochemical ingredients was determined in membrane penetration tests with apple leaf cuticles using the example of metribuzin. […] Efforts are therefore being made to find additives that promote wetting but only slightly increase the uptake of the active ingredient, such that only a minimum portion of the active ingredient is taken up into the leaf. The plant cuticle is a lipophilic solubility membrane (lipid membrane) without pores or holes, and the results described are also expected for other nonporous lipophilic solubility membranes with these or other electrolyte active ingredients. The principle of the method has been published (e.g. WO-A-2005/194844; Baur, 1997; Baur, Grayson and Schönherr 1999; Baur, Bodelon and Lowe, 2012), and only the specifics and differences in the method are elucidated hereinafter. The leaf cuticles were enzymatically isolated in the manner described in the literature from apple leaves of orchard trees in a commercial stone fruit growing facility near Frankfurt am Main in 2016. The stomata-free cuticles were first dried under air and then installed into stainless steel diffusion cells. After application to the original upper side of the leaf and evaporation of the test liquid, i.e. of the aqueous preparations of the active ingredients without or with the glucamide-containing spray liquids or comparative compositions, the diffusion cells were transferred into thermostatted blocks and charged with aqueous liquid. The water used to make up the aqueous test liquids was local tap water (of known composition). At regular intervals, aliquot samples were taken and the proportion of active ingredient penetrated was determined by HPLC. During the experiment, the temperature in the system (block, diffusion cells, liquids, etc.) and the air humidity above the spray deposit on the cuticle were known exactly and were monitored. […] In each case, the geometric mean values of the penetration for intact membranes at the mean measurement times are given. According to the variant (active ingredient×test additive/formulation), 7-8 repetitions were set up. The coefficient of variation was below 35%, which is a typical biological variability for penetration for numerous plants (Baur, 1997).

SMILES | Dynamic surface tension [mN/m] 20 ms ([1]; amount 0.03 % by wt.) [mN/m] | Dynamic surface tension [mN/m] 20 ms ([1]; amount 0.1 % by wt.) [mN/m] | Dynamic surface tension [mN/m] 20 ms ([1]; amount 0.3 % by wt.) [mN/m] | Dynamic surface tension [mN/m] 50 ms ([1]; amount 0.03 % by wt.) [mN/m] | Dynamic surface tension [mN/m] 50 ms ([1]; amount 0.1 % by wt.) [mN/m] | Dynamic surface tension [mN/m] 50 ms ([1]; amount 0.3 % by wt.) [mN/m] | Dynamic surface tension [mN/m] 100 ms ([1]; amount 0.03 % by wt.) [mN/m] | Dynamic surface tension [mN/m] 100 ms ([1]; amount 0.1 % by wt.) [mN/m] | Dynamic surface tension [mN/m] 100 ms ([1]; amount 0.3 % by wt.) [mN/m] | Dynamic surface tension [mN/m] 200 ms ([1]; amount 0.03 % by wt.) [mN/m] | Dynamic surface tension [mN/m] 200 ms ([1]; amount 0.1 % by wt.) [mN/m] | Dynamic surface tension [mN/m] 200 ms ([1]; amount 0.3 % by wt.) [mN/m] | Plant compatibility (necroses or other symptoms such as leaf curl-up or deformation) (indicator plants) | other results
CCCCCCCCCCCC(=O)N(C)CC(O)C(O)C(O)C(O)CO (stereo not drawn) [dodecanoyl-N-methylglucamide] | 70.6 | 70.0 | 67.0 | 67.3 | 66.8 | 61.9 | 63.0 | 60.1 | 58.8 | 57.9 | 51.4 | 48.7 |  | 
C=CCCCCCCCC(=O)N(C)CC(O)C(O)C(O)C(O)CO (stereo not drawn) [dec-9-enoyl-N-methylglucamide] |  |  |  |  |  |  |  |  |  |  |  |  |  | Dynamic surface tension [mN/m] 20 ms ([1]; amount 0.06 % by wt.): 70.2 mN/m; Dynamic surface tension [mN/m] 20 ms ([1]; amount 0.125 % by wt.): 66.4 mN/m; Dynamic surface tension [mN/m] 20 ms ([1]; amount 0.25 % by wt.): 59.7 mN/m; Dynamic surface tension [mN/m] 50 ms ([1]; amount 0.06 % by wt.): 68.9 mN/m; Dynamic surface tension [mN/m] 50 ms ([1]; amount 0.125 % by wt.): 63.7 mN/m; Dynamic surface tension [mN/m] 50 ms ([1]; amount 0.25 % by wt.): 56.6 mN/m; Dynamic surface tension [mN/m] 100 ms ([1]; amount 0.06 % by wt.): 67.6 mN/m; Dynamic surface tension [mN/m] 100 ms ([1]; amount 0.125 % by wt.): 61.8 mN/m; Dynamic surface tension [mN/m] 100 ms ([1]; amount 0.25 % by wt.): 55.5 mN/m; Dynamic surface tension [mN/m] 200 ms ([1]; amount 0.06 % by wt.): 67.4 mN/m; Dynamic surface tension [mN/m] 200 ms ([1]; amount 0.125 % by wt.): 61.0 mN/m; Dynamic surface tension [mN/m] 200 ms ([1]; amount 0.25 % by wt.): 54.1 mN/m; Water solubility in the spray liquid [2]: completely water-soluble; Appearance ([2]; spray liquid in water, assessed after 24 h): clear transparent spray liquid
CCC=CCCCCCCCC(=O)N(C)CC(O)C(O)C(O)C(O)CO (stereo not drawn) [Dodec-9-enoyl-N-methylglucamide] | 70.0 | 56.1 | 44.5 | 66.1 | 47.7 | 38.5 | 61.9 | 44.0 | 36.0 | 58.6 | 40.1 | 33.4 | no necroses or other symptoms | Effect on fine droplet content (in words) [3]: distinct reduction in the fine droplet content; Lowering of the dynamic surface tension (in words) ([1]; summary of Table 2): particularly large; Mean penetration for metribuzin after time in % 1 day (apple leaf cuticles; test substance 0.05 % by wt.): 2.9%; Mean penetration for metribuzin after time in % 2 days (apple leaf cuticles; test substance 0.05 % by wt.): 4.6%; Mean penetration for metribuzin after time in % 1 day (apple leaf cuticles; test substance 0.1 % by wt.): 3.9%; Mean penetration for metribuzin after time in % 2 days (apple leaf cuticles; test substance 0.1 % by wt.): 6.5%; Mean penetration for metribuzin after time in % 1 day (apple leaf cuticles; test substance 0.14 % by wt.): 5.7%; Mean penetration for metribuzin after time in % 2 days (apple leaf cuticles; test substance 0.14 % by wt.): 8.6%
CCCCCCCCC(=O)N(C)C[C@H](O)[C@@H](O)[C@H](O)[C@H](O)CO [N-methyl-N-nonanoylglucamine] |  |  |  |  |  |  |  |  |  |  |  |  | no necroses or other symptoms | 
